Legend:
[1] = molecular target: Recombinant human DDR1 (aa440-876 containing a GST tag) (Homo sapiens (Human), UniProt Q08345); experiment: LanthaScreen Eu Kinase Binding Assay DDR1; conditions: Kinase Tracer 178 5 nM, at least two independent replicates; for IC50: read-out: DDR1 pIC50 (converted)
Protocol: (§1) DDR1 and DDR2 Biochemical Assay Method The capacity of compounds to bind to DDR1 and DDR2 was quantified using a LanthaScreen Eu Kinase Binding Assay. Recombinant human DDR1 (2.5 nM; aa440-876 containing a GST tag) and DDR2 (1.75 nM; aa427-855 containing a GST tag) were diluted in assay buffer (50 mM HEPES pH7.3, 10 mM MgCl2, 1 mM EGTA and 0.01% Tween) with various concentrations of compound in a 384-well plate and a volume of 5 uL. After a 30-minute incubation at room temperature, 2.5 uL of Eu-anti GST antibody (diluted to 1 nM in assay buffer) plus Kinase Tracer 178 (diluted in assay buffer to 5 nM for DDR1 and 10 nM for DDR2) were added to the plate. Following 60-minute incubation at room temperature, time-resolved fluorescence was measured on a BMG Labtech PHERAstar plate reader. DMSO (1%) and reference compound (1 μM) were used to generate the Max and Min assay signals, respectively. Data was analysed using a four-parameter logistic model to calculate IC50 values, with at least two independent replicates were performed for each compound.

[2] = molecular target: Recombinant human DDR2 (aa427-855 containing a GST tag) (Homo sapiens (Human), UniProt Q16832); experiment: LanthaScreen Eu Kinase Binding Assay DDR2; conditions: Kinase Tracer 178 10 nM, at least two independent replicates; for IC50: read-out: DDR2 pIC50 (converted)
Chain of Recombinant human DDR2 (aa427-855 containing a GST tag) (Q16832 427-855): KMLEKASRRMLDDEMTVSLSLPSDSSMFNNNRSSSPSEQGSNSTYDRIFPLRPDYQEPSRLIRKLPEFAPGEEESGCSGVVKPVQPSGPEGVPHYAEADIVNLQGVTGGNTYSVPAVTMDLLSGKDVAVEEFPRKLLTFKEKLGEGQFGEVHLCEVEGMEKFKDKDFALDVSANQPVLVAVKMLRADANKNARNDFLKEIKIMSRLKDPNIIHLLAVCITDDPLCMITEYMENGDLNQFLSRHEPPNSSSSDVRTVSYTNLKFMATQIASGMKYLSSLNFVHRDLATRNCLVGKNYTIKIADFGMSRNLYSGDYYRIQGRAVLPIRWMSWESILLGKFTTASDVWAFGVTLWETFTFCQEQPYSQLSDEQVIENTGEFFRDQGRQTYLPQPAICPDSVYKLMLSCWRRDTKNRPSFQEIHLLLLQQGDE
Protocol: as §1

Chain of Recombinant human DDR1 (aa440-876 containing a GST tag) (Q08345 other isoform, or with tags, fused parts or gaps): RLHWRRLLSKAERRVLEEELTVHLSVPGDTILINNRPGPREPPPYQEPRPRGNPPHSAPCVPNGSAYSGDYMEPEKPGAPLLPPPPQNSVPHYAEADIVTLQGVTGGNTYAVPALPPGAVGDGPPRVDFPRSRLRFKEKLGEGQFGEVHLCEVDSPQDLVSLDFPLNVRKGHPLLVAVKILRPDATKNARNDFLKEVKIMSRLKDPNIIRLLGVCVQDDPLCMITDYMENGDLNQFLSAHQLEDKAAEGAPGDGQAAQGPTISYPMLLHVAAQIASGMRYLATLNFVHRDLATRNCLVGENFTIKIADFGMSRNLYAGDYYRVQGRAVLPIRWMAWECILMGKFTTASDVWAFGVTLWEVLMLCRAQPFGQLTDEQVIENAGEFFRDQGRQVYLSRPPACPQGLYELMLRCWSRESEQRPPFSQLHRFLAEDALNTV

| SMILES | DDR1 pIC50 [1] | IC50 [2] [nM] | IC50 [1] [nM] | DDR2 pIC50 [2] |
| --- | --- | --- | --- | --- |
| Cn1ncc2c(-c3ccc(-n4c(=O)n(CC(=O)N5CCOC(C(F)(F)F)C5)c5ccccc54)cc3)cncc21 (stereo not drawn) [Example 24, 1-[4-(1-methylpyrazolo[3,4-c]pyridin-4-yl)phenyl]-3-[2-oxo-2-[2-(trifluoromethyl)morpholin-4-yl]ethyl]benzimidazol-2-one] | A (pIC50>8) | – | – | D (pIC50≤6) |
| CC(CC(F)(F)F)NC(=O)Cn1c(=O)n(-c2ccc(-c3cncc4c3cnn4C)cc2)c2ccccc21 (stereo not drawn) [Example 28, 2-[3-[4-(1-methylpyrazolo[3,4-c]pyridin-4-yl)phenyl]-2-oxo-benzimidazol-1-yl]-N-(3,3,3-trifluoro-1-methyl-propyl)acetamide] | A (pIC50>8) | – | – | D (pIC50≤6) |
| CC(CNC(=O)Cn1c(=O)n(-c2ccc(-c3cncc4c3cnn4C)cc2)c2ccccc21)C(F)(F)F (stereo not drawn) [Example 33, 2-[3-[4-(1-methylpyrazolo[3,4-c]pyridin-4-yl)phenyl]-2-oxobenzimidazol-1-yl]-N-(3,3,3-trifluoro-2-methyl-propyl)acetamide] | – | – | 10 to 100 | D (pIC50≤6) |
| Cn1ncc2c(-c3ccc(-n4c(=O)n(CC(=O)NC5CC5(F)F)c5ccccc54)cc3)cncc21 (stereo not drawn) [Example 36, N-(2,2-difluorocyclopropyl)-2-[3-[4-(1-methylpyrazolo[3,4-c]pyridin-4-yl)phenyl]-2-oxobenzimidazol-1-yl]acetamide] | – | – | 100 to 1000 | D (pIC50≤6) |
| Cn1ncc2c(-c3ccc(-n4c(=O)n(CC(=O)N5CCO[C@@H](C(F)(F)F)C5)c5ccccc54)cc3)cncc21 [Example 37, 1-[4-(1-methylpyrazolo[3,4-c]pyridin-4-yl)phenyl]-3-[2-oxo-2-[(2R)-2-(trifluoromethyl)morpholin-4-yl]ethyl]benzimidazol-2-one] | – | – | 10 to 100 | D (pIC50≤6) |
| Cn1ncc2c(-c3ccc(-n4c(=O)n(CC(=O)N5CCO[C@H](C(F)(F)F)C5)c5ccccc54)cc3)cncc21 [Example 38, 1-[4-(1-methylpyrazolo[3,4-c]pyridin-4-yl)phenyl]-3-[2-oxo-2-[(2S)-2-(trifluoromethyl)morpholin-4-yl]ethyl]benzimidazol-2-one] | – | – | 10 to 100 | D (pIC50≤6) |
| Cc1cccc2c1n(-c1ccc(-c3cncc4c3cnn4C)cc1)c(=O)n2CC(=O)N1CCOCC1C(F)(F)F (stereo not drawn) [Example 39, 4-methyl-3-[4-(1-methylpyrazolo[3,4-c]pyridin-4-yl)phenyl]-1-[2-oxo-2-[3-(trifluoromethyl)morpholin-4-yl]ethyl]benzimidazol-2-one] | A (pIC50>8) | 10 to 100 | – | – |
| Cc1cc(-c2cncc3c2cnn3C)ccc1-n1c(=O)n(CC(=O)N2CCOC(C(F)(F)F)C2)c2ccccc21 (stereo not drawn) [Example 40, 1-[2-methyl-4-(1-methylpyrazolo[3,4-c]pyridin-4-yl)phenyl]-3-[2-oxo-2-[2-(trifluoromethyl)morpholin-4-yl]ethyl]benzimidazol-2-one] | – | – | 10 to 100 | D (pIC50≤6) |
| O=C(Cn1c(=O)n(-c2ccc(-c3cncc4[nH]ncc34)cc2)c2ccccc21)NCC(F)(F)F [Example 41, 2-[2-oxo-3-[4-(1H-pyrazolo[3,4-c]pyridin-4-yl)phenyl]benzimidazol-1-yl]-N-(2,2,2-trifluoroethyl)acetamide] | – | 100 to 1000 | 10 to 100 | – |
| Cc1cccc2c1n(-c1ccc(-c3cncc4c3cnn4C)cc1)c(=O)n2CC(=O)N1CCO[C@H](C(F)(F)F)C1 [Example 42, 4-methyl-3-[4-(1-methylpyrazolo[3,4-c]pyridin-4-yl)phenyl]-1-[2-oxo-2-[(2S)-2-(trifluoromethyl)morpholin-4-yl]ethyl]benzimidazol-2-one] | A (pIC50>8) | 10 to 100 | – | – |

Other lines, results leading:

| DDR1 pIC50 [1] | IC50 [2] [nM] | IC50 [1] [nM] | DDR2 pIC50 [2] | SMILES |
| --- | --- | --- | --- | --- |
| A (pIC50>8) | 10 to 100 | – | – | Cn1ncc2c(-c3ccc(-n4c(=O)n(CC(=O)N5CCCC5C(F)(F)F)c5ccccc54)cc3)cncc21 (stereo not drawn) [Example 18, 1-[4-(1-methylpyrazolo[3,4-c]pyridin-4-yl)phenyl]-3-[2-oxo-2-[2-(trifluoromethyl)pyrolidin-1-yl]ethyl]benzimidazol-2-one] |
| – | – | 10 to 100 | D (pIC50≤6) | CC(NC(=O)Cn1c(=O)n(-c2ccc(-c3cncc4c3cnn4C)cc2)c2ccccc21)C1CC1 (stereo not drawn) [Example 19, N-(1-cyclopropylethyl)-2-[3-[4-(1-methylpyrazolo[3,4-c]pyridin-4-yl)phenyl]-2-oxobenzimidazol-1-yl]acetamide] |
| A (pIC50>8) | 100 to 1000 | – | – | Cn1ncc2c(-c3ccc(-n4c(=O)n(CC(=O)N5CCCCC5C(F)(F)F)c5ccccc54)cc3)cncc21 (stereo not drawn) [Example 20, 1-[4-(1-methylpyrazolo[3,4-c]pyridin-4-yl)phenyl]-3-[2-oxo-2-[2-(trifluoromethyl)-1-piperidyl]ethyl]benzimidazol-2-one] |
| D (pIC50≤6) | – | – | D (pIC50≤6) | CN1CCN(C(=O)Cn2c(=O)n(-c3ccc(-c4cncc5c4cnn5C)cc3)c3ccccc32)CC1 [Example 21, 1-[2-(4-methylpiperazin-1-yl)-2-oxoethyl]-3-[4-(1-methylpyrazolo[3,4-c]pyridin-4-yl)phenyl]benzimidazol-2-one] |
| D (pIC50≤6) | – | – | D (pIC50≤6) | Cn1ncc2c(-c3ccc(-n4c(=O)n(CC(=O)N5CCOCC5)c5ccccc54)cc3)cncc21 [Example 22, 1-[4-(1-methylpyrazolo[3,4-c]pyridin-4-yl)phenyl]-3-(2-morpholino-2-oxoethyl)benzimidazol-2-one] |
| A (pIC50>8) | – | – | D (pIC50≤6) | Cn1ncc2c(-c3ccc(-n4c(=O)n(CC(=O)N5CCCC(C(F)(F)F)C5)c5ccccc54)cc3)cncc21 (stereo not drawn) [Example 23, 1-[4-(1-methylpyrazolo[3,4-c]pyridin-4-yl)phenyl]-3-[2-oxo-2-[3-(trifluoromethyl)-1-piperidyl]ethyl]benzimidazol-2-one] |
| A (pIC50>8) | 10 to 100 | – | – | Cn1ncc2c(-c3ccc(-n4c(=O)n(CC(=O)N5CCC[C@H]5C(F)F)c5ccccc54)cc3)cncc21 [Example 25, 1-[2-[(2S)-2-(difluoromethyl)pyrrolidin-1-yl]-2-oxo-ethyl]-3-[4-(1-methylpyrazolo[3,4-c]pyridin-4-yl)phenyl]benzimidazol-2-one] |
| – | – | 10 to 100 | D (pIC50≤6) | C[C@@H]1CCCN1C(=O)Cn1c(=O)n(-c2ccc(-c3cncc4c3cnn4C)cc2)c2ccccc21 [Example 27, 1-[4-(1-methylpyrazolo[3,4-c]pyridin-4-yl)phenyl]-3-[2-[(2R)-2-methylpyrrolidin-1-yl]-2-oxoethyl]benzimidazol-2-one] |
| A (pIC50>8) | – | – | D (pIC50≤6) | Cn1ncc2c(-c3ccc(-n4c(=O)n(CC(=O)N5CCC[C@@H](C(F)(F)F)C5)c5ccccc54)cc3)cncc21 [Example 29, 1-[4-(1-methylpyrazolo[3,4-c]pyridin-4-yl)phenyl]-3-[2-oxo-2-[(3R)-3-(trifluoromethyl)-1-piperidyl]ethyl]benzimidazol-2-one] |
| – | – | 100 to 1000 | D (pIC50≤6) | Cn1ncc2c(-c3ccc(-n4c(=O)n(CC(=O)N5CCCC[C@@H]5C(F)(F)F)c5ccccc54)cc3)cncc21 [Example 30, 1-[4-(1-methylpyrazolo[3,4-c]pyridin-4-yl)phenyl]-3-[2-oxo-2-[(2R)-2-(trifluoromethyl)-1-piperidyl]ethyl]benzimidazol-2-one] |
| A (pIC50>8) | – | – | D (pIC50≤6) | Cn1ncc2c(-c3ccc(-n4c(=O)n(CC(=O)N5CCC[C@H](C(F)(F)F)C5)c5ccccc54)cc3)cncc21 [Example 31, 1-[4-(1-methylpyrazolo[3,4-c]pyridin-4-yl)phenyl]-3-[2-oxo-2-[(3S)-3-(trifluoromethyl)-1-piperidyl]ethyl]benzimidazol-2-one] |
| A (pIC50>8) | 100 to 1000 | – | – | Cn1ncc2c(-c3ccc(-n4c(=O)n(CC(=O)N5CCCC[C@H]5C(F)(F)F)c5ccccc54)cc3)cncc21 [Example 32, 1-[4-(1-methylpyrazolo[3,4-c]pyridin-4-yl)phenyl]-3-[2-oxo-2-[(2S)-2-(trifluoromethyl)-1-piperidyl]ethyl]benzimidazol-2-one] |
| – | – | 100 to 1000 | D (pIC50≤6) | Cn1ncc2c(-c3ccc(-n4c(=O)n(CC(=O)N5CC(C(F)(F)F)C5)c5ccccc54)cc3)cncc21 [Example 34, 1-[4-(1-methylpyrazolo[3,4-c]pyridin-4-yl)phenyl]-3-[2-oxo-2-[3-(trifluoromethyl)azetidin-1-yl]ethyl]benzimidazol-2-one] |
| D (pIC50≤6) | – | – | D (pIC50≤6) | Cn1ncc2c(-c3ccc(-n4c(=O)n(CC(=O)N5CC(F)(F)C5)c5ccccc54)cc3)cncc21 [Example 35, 1-[2-(3,3-difluoroazetidin-1-yl)-2-oxoethyl]-3-[4-(1-methylpyrazolo[3,4-c]pyridin-4-yl)phenyl]benzimidazol-2-one] |
